How the values were obtained:
Format in all cases: functional
Rattus norvegicus [1] = assay: Antiallergic activity in anti-egg albumin homocytotropic antibody-sensitized Sprague-Dawley rat assessed as inhibition of passive cutaneous anaphylaxis reaction at 50 mg/kg, po administered 5 mins prior to antigen egg albumin challenge
Rattus norvegicus [2] = assay: Antiallergic activity in po dosed anti-egg albumin homocytotropic antibody-sensitized Sprague-Dawley rat assessed as lowest concentration required for >20% inhibition of passive cutaneous anaphylaxis reaction administered prior to antigen egg albumin challenge
Rattus norvegicus [3] = assay: Antiallergic activity in anti-egg albumin homocytotropic antibody-sensitized Sprague-Dawley rat assessed as inhibition of passive cutaneous anaphylaxis reaction at 50 mg/kg, po administered 20 mins prior to antigen egg albumin challenge
Rattus norvegicus [4] = assay: Antiallergic activity in anti-egg albumin homocytotropic antibody-sensitized Sprague-Dawley rat assessed as time of peak action for inhibition of passive cutaneous anaphylaxis reaction at 50 mg/kg, po administered prior to antigen egg albumin challenge
Rattus norvegicus [5] = assay: Antiallergic activity in anti-egg albumin homocytotropic antibody-sensitized Sprague-Dawley rat assessed as inhibition of passive cutaneous anaphylaxis reaction at 50 mg/kg, po administered 120 mins prior to antigen egg albumin challenge
Rattus norvegicus [6] = assay: Antiallergic activity in anti-egg albumin homocytotropic antibody-sensitized Sprague-Dawley rat assessed as inhibition of passive cutaneous anaphylaxis reaction at 50 mg/kg, po administered 60 mins prior to antigen egg albumin challenge
Rattus norvegicus [7] = assay: Antiallergic activity in anti-egg albumin homocytotropic antibody-sensitized Sprague-Dawley rat assessed as inhibition of passive cutaneous anaphylaxis reaction at 10 mg/kg, po administered 20 mins prior to antigen egg albumin challenge
Rattus norvegicus [8] = assay: Antiallergic activity in anti-egg albumin homocytotropic antibody-sensitized Sprague-Dawley rat assessed as inhibition of passive cutaneous anaphylaxis reaction at 10 mg/kg, po administered 60 mins prior to antigen egg albumin challenge
Rattus norvegicus [9] = assay: Antiallergic activity in anti-egg albumin homocytotropic antibody-sensitized Sprague-Dawley rat assessed as inhibition of passive cutaneous anaphylaxis reaction at 10 mg/kg, po administered 5 mins prior to antigen egg albumin challenge
Rattus norvegicus [10] = assay: Antiallergic activity in iv dosed anti-egg albumin homocytotropic antibody-sensitized Sprague-Dawley rat assessed as inhibition of passive cutaneous anaphylaxis reaction administered at the time of antigen egg albumin challenge
Rattus norvegicus [11] = assay: Ratio of disodium cromoglycate ED50 to compound ED50 for antiallergic activity in iv dosed anti-egg albumin homocytotropic antibody-sensitized Sprague-Dawley rat by passive cutaneous anaphylaxis reaction analysis
Rattus norvegicus [12] = assay: Antiallergic activity in anti-egg albumin homocytotropic antibody-sensitized Sprague-Dawley rat assessed as inhibition of passive cutaneous anaphylaxis reaction at 0.001 mg/kg, iv administered at the time of antigen egg albumin challenge
Rattus norvegicus [13] = assay: Antiallergic activity in anti-egg albumin homocytotropic antibody-sensitized Sprague-Dawley rat assessed as inhibition of passive cutaneous anaphylaxis reaction at 0.01 mg/kg, iv administered at the time of antigen egg albumin challenge

Structure (SMILES)	inhibition in vivo at 50 mg/kg (Rattus norvegicus [1])	LED (Rattus norvegicus [2])	inhibition in vivo at 50 mg/kg (Rattus norvegicus [3])	Time (Rattus norvegicus [4])	inhibition in vivo at 50 mg/kg (Rattus norvegicus [6])	other results
CCOC(=O)C(=O)Nc1cccc(NC(=O)C(=O)OCC)c1	3%	1 mg/kg	94%	20 min	14%	inhibition in vivo at 50 mg/kg (Rattus norvegicus [5]): 29%
CCOC(=O)C(=O)Nc1cc(C#N)cc(NC(=O)C(=O)OCC)c1						inhibition in vivo at 10 mg/kg (Rattus norvegicus [7]): 25%; inhibition in vivo at 10 mg/kg (Rattus norvegicus [8]): 0%; inhibition in vivo at 10 mg/kg (Rattus norvegicus [9]): 95%
O=C([O-])c1cc(=O)c2c(OCC(O)COc3cccc4oc(C(=O)[O-])cc(=O)c34)cccc2o1.[Na+].[Na+] [CROMOLYN SODIUM]						ED50 (Rattus norvegicus [10]): 2.5 mg/kg
CCOC(=O)C(=O)Nc1cc(C#N)cc(NC(=O)C(=O)OCC)c1Cl [LODOXAMIDE ETHYL]	100%	0.1 mg/kg	31%	5 min	0%	
N#Cc1cc(NC(=O)C(=O)O)c(Cl)c(NC(=O)C(=O)O)c1 [LODOXAMIDE]						Ratio ED50 (Rattus norvegicus [11]): 2500; inhibition in vivo at 0.001 mg/kg (Rattus norvegicus [12]): 50%; inhibition in vivo at 0.01 mg/kg (Rattus norvegicus [13]): 94%

From ChEMBL document CHEMBL3244076, “N,N'-(Phenylene)dioxamic acids and their esters as antiallergy agents” (1978)
